Key:
h5-HT2A receptor = biological target: T1, h5-HT2A receptor (Homo sapiens, UniProt P28223); experiment: Radioligand binding at h5-HT2A receptor ([3H]ketanserin); details: for Selectivity 5-HT2A vs. 5-HT1A / Selectivity 5-HT2A vs. 5-HT2C: binding ratio; for Ki: h5-HT2A Receptor binding Ki ± SD, [3H]ketanserin, mean ± SD
T1 construct: expressed in transfected cells; host or cells: HEK 293 cells (membrane preparations)

h5-HT2C receptor = biological target: T2, h5-HT2C receptor (Homo sapiens, UniProt P28335); experiment: biochemical; type: binding; details: for Ki: [3H]mesulergine, mean ± SD, read-out: h5-HT2C Receptor binding Ki ± SD
T2 construct: expressed in transfected cells; host or cells: HEK 293 cells (membrane preparations)
T2 sequence (P28335 33-458): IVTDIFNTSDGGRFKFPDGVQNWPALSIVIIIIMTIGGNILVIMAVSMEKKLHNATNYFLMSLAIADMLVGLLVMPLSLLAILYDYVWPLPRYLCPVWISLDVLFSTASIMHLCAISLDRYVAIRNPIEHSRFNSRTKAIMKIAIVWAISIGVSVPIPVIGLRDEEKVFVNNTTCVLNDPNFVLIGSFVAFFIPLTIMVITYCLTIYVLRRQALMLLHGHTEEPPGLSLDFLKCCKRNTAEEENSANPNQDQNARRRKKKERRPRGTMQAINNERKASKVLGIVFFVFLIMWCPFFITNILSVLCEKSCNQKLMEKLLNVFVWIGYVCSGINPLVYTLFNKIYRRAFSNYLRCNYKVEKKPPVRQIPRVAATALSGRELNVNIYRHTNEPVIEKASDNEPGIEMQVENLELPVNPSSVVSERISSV

human TAAR1 = biological target: T3, human TAAR1 (Homo sapiens, UniProt Q96RJ0); experiment: Activity at the human TAAR1 (cAMP assay, HEK 293 cells); type: cell-based
T3 construct: expressed in transfected cells; host or cells: HEK 293 cells
T3 sequence (Q96RJ0 1-339): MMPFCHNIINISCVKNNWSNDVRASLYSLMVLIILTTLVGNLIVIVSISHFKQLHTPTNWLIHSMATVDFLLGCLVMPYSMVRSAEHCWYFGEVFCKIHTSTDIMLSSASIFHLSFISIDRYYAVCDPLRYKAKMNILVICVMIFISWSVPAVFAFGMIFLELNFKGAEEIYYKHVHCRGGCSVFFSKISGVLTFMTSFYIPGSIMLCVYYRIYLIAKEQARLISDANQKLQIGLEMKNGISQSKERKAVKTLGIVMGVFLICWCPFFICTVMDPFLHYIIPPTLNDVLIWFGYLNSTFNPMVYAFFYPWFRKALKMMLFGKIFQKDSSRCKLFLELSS
Description: Once 80–90% confluency was reached, the cells were collected by removing the medium, washing with PBS and then adding 5 ml of trypsin/EDTA solution for 5 min at 37°C. Next, 45 ml of medium was added and the entire mixture was transferred into a falcon tube. The tube was then centrifuged at room temperature for 3 min at 900 revolutions per minute (rpm). Next, the supernatant was removed in order to resuspend the remaining cell pellet in fresh medium to 5 × 10^5 cells/ml. Hundred microliter of the cells was transferred into a 96-well plate ([…]; BIOCOAT 6640, Becton Dickinson, Allschwil, Switzerland) and incubated for 20 h at 37°C.
For the cAMP assay, the aspirated medium was replaced with 50 μl PBS without Ca^2+ and Mg^2+ ions. Using snap inversion, the PBS was extracted and the plate was gently tapped against tissue. Next, 90 μl of Krebs-Ringer Bicarbonate buffer (KRB, Sigma-Aldrich) containing 1 mM IBMX was added and incubated for 60 min at 37°C and 5% CO2/95% air. Each test compound was examined in duplicate in a concentration range between 300 pM and 30 μM. A standard curve with a range of cAMP concentrations (0.13 nM–10 μM) was created for each 96-well plate. Each experiment was accompanied with a reference plate that included RO5256390, β-phenylethylamine and p-tyramine. The cells were exposed to either 30 μl of compound solution, 30 μl of β-phenylethylamine (as maximal response), or a basal control in PBS (containing 1 mM IBMX) for 40 min at 37°C. Next, under forceful shaking using black lids, the cells were exposed to 50 μl of 3× detection mix solution (composed of Ru-cAMP Alexa700 anti-cAMP antibody and lysis buffer) for 120 min at room temperature. Using the NanoScan reader (Innovate Optische Messtechnik, Berlin, Germany; 456 nm excitation wavelength; 630 and 700 nm emission wavelengths), the fluorescence was examined and the FRET signal was determined using the following equation; FRET (700 nm)- P × FRET (630 nm), where P = Ru (700 nm)/Ru (630 nm).

rat TAAR1 = biological target: T4, rat TAAR1 (Rattus norvegicus, UniProt Q923Y9); experiment: Radioligand binding at rat TAAR1 ([3H]RO5166017)
T4 construct: expressed in transfected cells; host or cells: HEK 293 cells (membrane preparations)

mouse TAAR1 = biological target: T5, mouse TAAR1 (Mus musculus, UniProt Q923Y8); experiment: Radioligand binding at mouse TAAR1 ([3H]RO5166017)
T5 construct: expressed in transfected cells; host or cells: HEK 293 cells (membrane preparations)

hα2A adrenergic receptor = biological target: T6, hα2A adrenergic receptor (Homo sapiens, UniProt P08913); experiment: Radioligand binding at hα2A adrenergic receptor ([3H]rauwolscine)
T6 construct: expressed in transfected cells; host or cells: Chinese hamster lung cells (membrane preparations)
T6 sequence (P08913 1-465): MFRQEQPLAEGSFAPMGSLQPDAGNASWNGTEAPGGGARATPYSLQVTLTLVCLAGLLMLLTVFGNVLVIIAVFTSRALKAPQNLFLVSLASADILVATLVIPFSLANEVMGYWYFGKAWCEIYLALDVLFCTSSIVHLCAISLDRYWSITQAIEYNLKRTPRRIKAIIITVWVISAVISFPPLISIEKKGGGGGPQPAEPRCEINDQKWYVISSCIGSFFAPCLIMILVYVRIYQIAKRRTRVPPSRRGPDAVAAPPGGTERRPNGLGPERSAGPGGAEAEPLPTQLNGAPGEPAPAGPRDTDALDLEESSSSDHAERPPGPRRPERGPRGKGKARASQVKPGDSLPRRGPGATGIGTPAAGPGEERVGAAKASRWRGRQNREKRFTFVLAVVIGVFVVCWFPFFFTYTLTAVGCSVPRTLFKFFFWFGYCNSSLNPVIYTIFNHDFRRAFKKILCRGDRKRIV

hNET = biological target: T7, hNET (Homo sapiens, UniProt P23975); experiment: Radioligand binding at hNET (N-methyl-[3H]nisoxetine)
T7 construct: expressed in transfected cells; host or cells: HEK 293 cells (membrane preparations)

human 5-HT2A receptor = human 5-HT2A receptor (Homo sapiens, UniProt P28223); details: for Emax: NIH3T3, read-out: h5-HT2A Activation efficacy max ± SD, relative to 5-HT = 100%
human 5-HT2B receptor = human 5-HT2B receptor (Homo sapiens, UniProt P41595); details: for Emax: HEK293, read-out: h5-HT2B Activation efficacy max ± SD, relative to 5-HT = 100%; for EC50: h5-HT2B Activation potency EC50 ± SD, HEK 293 cells, calcium FLIPR, mean ± SD
Chain of human 5-HT2B receptor (P41595 whole entry): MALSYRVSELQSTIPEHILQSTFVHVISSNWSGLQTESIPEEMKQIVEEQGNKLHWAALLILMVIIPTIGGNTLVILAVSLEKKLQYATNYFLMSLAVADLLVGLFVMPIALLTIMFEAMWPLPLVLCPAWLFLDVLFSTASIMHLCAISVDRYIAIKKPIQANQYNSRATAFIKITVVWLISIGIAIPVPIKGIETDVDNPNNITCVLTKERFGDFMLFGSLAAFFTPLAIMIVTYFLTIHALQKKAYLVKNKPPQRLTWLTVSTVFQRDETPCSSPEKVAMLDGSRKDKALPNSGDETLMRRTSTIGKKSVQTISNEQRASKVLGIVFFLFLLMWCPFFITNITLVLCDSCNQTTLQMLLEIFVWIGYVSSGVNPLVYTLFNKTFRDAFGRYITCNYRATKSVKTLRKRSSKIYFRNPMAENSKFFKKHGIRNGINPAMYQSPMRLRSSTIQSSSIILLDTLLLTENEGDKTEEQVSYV

T4 sequence (Q923Y9 whole entry): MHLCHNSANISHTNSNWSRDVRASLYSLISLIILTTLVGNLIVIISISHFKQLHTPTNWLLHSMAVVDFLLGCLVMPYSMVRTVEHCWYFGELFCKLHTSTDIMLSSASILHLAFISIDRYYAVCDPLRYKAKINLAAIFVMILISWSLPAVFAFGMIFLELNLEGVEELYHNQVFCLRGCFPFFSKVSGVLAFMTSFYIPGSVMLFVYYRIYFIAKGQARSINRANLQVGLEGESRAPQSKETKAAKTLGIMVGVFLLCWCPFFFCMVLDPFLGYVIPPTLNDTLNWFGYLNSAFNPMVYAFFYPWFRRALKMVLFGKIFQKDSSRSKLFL
T5 sequence (Q923Y8 whole entry): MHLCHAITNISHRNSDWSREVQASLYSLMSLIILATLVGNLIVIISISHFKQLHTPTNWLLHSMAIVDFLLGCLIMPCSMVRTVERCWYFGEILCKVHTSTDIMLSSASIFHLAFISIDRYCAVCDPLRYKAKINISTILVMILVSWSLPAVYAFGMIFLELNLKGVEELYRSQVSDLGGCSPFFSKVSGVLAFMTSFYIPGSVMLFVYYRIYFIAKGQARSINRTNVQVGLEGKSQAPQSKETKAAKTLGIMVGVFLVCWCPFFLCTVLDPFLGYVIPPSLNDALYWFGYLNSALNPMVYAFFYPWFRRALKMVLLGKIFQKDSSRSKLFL
T1 sequence (P28223 whole entry): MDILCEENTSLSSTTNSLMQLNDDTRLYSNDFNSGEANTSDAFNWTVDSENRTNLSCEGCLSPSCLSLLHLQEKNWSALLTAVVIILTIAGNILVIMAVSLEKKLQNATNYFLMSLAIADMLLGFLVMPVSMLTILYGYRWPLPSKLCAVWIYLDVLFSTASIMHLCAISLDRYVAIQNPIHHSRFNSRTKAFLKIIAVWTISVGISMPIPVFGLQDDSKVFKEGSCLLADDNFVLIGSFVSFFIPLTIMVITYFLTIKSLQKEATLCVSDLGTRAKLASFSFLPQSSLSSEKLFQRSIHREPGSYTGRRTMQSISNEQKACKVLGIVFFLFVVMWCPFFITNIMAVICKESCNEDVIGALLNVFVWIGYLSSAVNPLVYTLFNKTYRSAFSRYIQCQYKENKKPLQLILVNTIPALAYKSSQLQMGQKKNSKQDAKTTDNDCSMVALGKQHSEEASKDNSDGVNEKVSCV
Chain of human 5-HT2A receptor (P28223 whole entry): as above
T7 sequence (P23975 whole entry): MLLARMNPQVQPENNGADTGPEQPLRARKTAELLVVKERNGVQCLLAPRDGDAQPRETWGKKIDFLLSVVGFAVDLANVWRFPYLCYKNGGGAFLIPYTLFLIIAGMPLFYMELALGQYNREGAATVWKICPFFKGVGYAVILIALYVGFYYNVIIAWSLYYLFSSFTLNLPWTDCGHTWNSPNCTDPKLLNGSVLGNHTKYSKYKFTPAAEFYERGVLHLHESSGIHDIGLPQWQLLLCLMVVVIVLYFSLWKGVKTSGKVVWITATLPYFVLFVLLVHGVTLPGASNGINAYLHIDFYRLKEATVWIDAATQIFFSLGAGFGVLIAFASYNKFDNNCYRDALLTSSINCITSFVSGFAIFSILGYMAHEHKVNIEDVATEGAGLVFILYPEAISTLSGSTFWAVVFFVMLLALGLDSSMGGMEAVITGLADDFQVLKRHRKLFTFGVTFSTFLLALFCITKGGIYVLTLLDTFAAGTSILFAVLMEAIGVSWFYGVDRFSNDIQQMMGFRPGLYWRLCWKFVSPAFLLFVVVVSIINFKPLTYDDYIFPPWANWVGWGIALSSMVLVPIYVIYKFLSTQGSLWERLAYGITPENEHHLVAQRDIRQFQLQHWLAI

Compound	Selectivity 5-HT2A vs. 5-HT1A (h5-HT2A receptor)	Selectivity 5-HT2A vs. 5-HT2C (h5-HT2A receptor)	Ki (h5-HT2A receptor)	Higher affinity at the 5-HT2A receptor compared to mescaline (5) (h5-HT2A receptor; ratio of Ki values)	Higher affinity at the 5-HT2C receptor than mescaline (5) (h5-HT2C receptor)	Ki (h5-HT2C receptor)	EC50 (human TAAR1)	Ki (rat TAAR1)	Ki (mouse TAAR1)	Ki (hα2A adrenergic receptor)	Ki (hNET)	EC50 (human 5-HT2A receptor)	Emax (human 5-HT2B receptor)	EC50 (human 5-HT2B receptor)	Emax (human 5-HT2A receptor)	Increase in 5-HT2A receptor affinity compared with TMA (6) (h5-HT2A receptor; ratio of Ki values)
COc1cc(CCN)cc(OC)c1OC(F)(F)F [compound 13, 4-trifluoromethoxy-3,5-dimethoxyphenethylamine]	7.9	1.0	0.28 ± 0.1 µM	17- to 63 fold	19- to 34 fold	0.29 ± 0.1 µM	> 10 µM	0.17 ± 0.01 µM	1.9 µM	0.45 ± 0.06 µM	> 9.7 µM	0.28 ± 0.12 µM	45 ± 6%	0.088 ± 0.02 µM		
COc1cc(CC(C)N)cc(OC)c1OC(F)F (centres unmarked) [compound 14, 4-difluoromethoxy-3,5-dimethoxyamphetamine]		2.6	1.4 µM			3.7 µM	> 10 µM	0.38 ± 0.02 µM	1 µM	2.6 µM	> 9.7 µM	0.076 ± 0.04 µM	18 to 29%	0.15 ± 0.1 µM		
COc1cc(CCN)cc(OC)c1OCC(F)(F)F [compound 18, 3,5-dimethoxy-4-(2,2,2-trifluoroethoxy)phenethylamine]		0.9	1.3 µM			1.2 µM	> 10 µM	1.2 µM	> 4.2 µM	2.3 µM	> 9.7 µM	0.96 ± 0.05 µM	29 ± 14%	0.21 ± 0.13 µM	44 to 78%	
COc1cc(CCN)cc(OC)c1OC(CF)CF [compound 23, 3,5-dimethoxy-4-(1,3-difluoroprop-2-yloxy)phenethylamine]			> 12 µM			> 10 µM	> 10 µM	> 4.7 µM	> 4.2 µM	2.7 µM	> 9.7 µM			> 10 µM		
COc1cc(CCN)cc(OC)c1OCCCF [compound 25, 3,5-dimethoxy-4-(3-fluoropropoxy)-phenethylamine]	<1	0.6	9.3 µM			5.3 µM	> 10 µM	1.7 µM	> 4.2 µM	2.9 µM	> 9.7 µM	4.5 µM		> 10 µM	85 to 94%	
COc1cc(CCN)cc(OC)c1OCCC(F)(F)F [compound 26, 3,5-dimethoxy-4-(3,3,3-trifluoropropoxy)phenethylamine]	>1	1.1	5 µM			5.3 µM	> 10 µM	0.91 ± 0.09 µM	> 4.2 µM	2.3 µM	> 9.7 µM	4.9 µM		> 10 µM		
CCCOc1c(OC)cc(CC(C)N)cc1OC (centres unmarked) [compound 28, 3,5-dimethoxy-4-propyloxyamphetamine]		2.0	1 µM			2 µM	> 10 µM	3.4 µM	1.8 µM	4.6 µM	> 9.7 µM	0.16 ± 0.02 µM		> 10 µM	86 to 102%	≥ 10 fold
COc1cc(CCN)cc(OC)c1OC1CC1 [compound 29, 4-cyclopropyloxy-3,5-dimethoxyphenethylamine]	0.9	1.3	4.3 µM			5.6 µM	> 10 µM	1.2 µM	> 4.2 µM	1.2 µM	> 9.7 µM	2.6 µM		> 10 µM	85 to 94%	
C=C(C)COc1c(OC)cc(CCN)cc1OC [compound 32, 3,5-dimethoxy-4-methallyloxyphenethylamine]	9.3	0.9	0.55 ± 0.19 µM	17- to 63 fold	19- to 34 fold	0.52 ± 0.15 µM	> 10 µM	1 µM	3.9 µM	1.5 µM	> 9.7 µM	0.079 ± 0.012 µM		> 10 µM	85 to 94%	
COc1cc(CCN)cc(OC)c1OCc1ccccc1 [compound 33, 4-benzyloxy-3,5-dimethoxyphenethylamine]	29	2.9	0.15 ± 0.01 µM	17- to 63 fold	19- to 34 fold	0.44 ± 0.12 µM	> 10 µM	0.11 ± 0.01 µM	2.4 µM	2.3 µM	> 9.7 µM	0.027 ± 0.008 µM		> 10 µM		

Source: article PMC8865417, “Receptor Interaction Profiles of 4-Alkoxy-3,5-Dimethoxy-Phenethylamines (Mescaline Derivatives) and Related Amphetamines” (Frontiers in Pharmacology, 2022)
